ChEMBL document CHEMBL5308504, “Tm Shift (DSF) assay results for EUbOPEN Chemogenomics Library” (2023)

Legend:
Peregrin (Homo sapiens) = target: T1, Peregrin (Homo sapiens) (UniProt P55201); conditions: Compound concentration 20.0 uM, Protein concentration 2.0 uM, Result type QC Liability
T1 sequence (whole entry): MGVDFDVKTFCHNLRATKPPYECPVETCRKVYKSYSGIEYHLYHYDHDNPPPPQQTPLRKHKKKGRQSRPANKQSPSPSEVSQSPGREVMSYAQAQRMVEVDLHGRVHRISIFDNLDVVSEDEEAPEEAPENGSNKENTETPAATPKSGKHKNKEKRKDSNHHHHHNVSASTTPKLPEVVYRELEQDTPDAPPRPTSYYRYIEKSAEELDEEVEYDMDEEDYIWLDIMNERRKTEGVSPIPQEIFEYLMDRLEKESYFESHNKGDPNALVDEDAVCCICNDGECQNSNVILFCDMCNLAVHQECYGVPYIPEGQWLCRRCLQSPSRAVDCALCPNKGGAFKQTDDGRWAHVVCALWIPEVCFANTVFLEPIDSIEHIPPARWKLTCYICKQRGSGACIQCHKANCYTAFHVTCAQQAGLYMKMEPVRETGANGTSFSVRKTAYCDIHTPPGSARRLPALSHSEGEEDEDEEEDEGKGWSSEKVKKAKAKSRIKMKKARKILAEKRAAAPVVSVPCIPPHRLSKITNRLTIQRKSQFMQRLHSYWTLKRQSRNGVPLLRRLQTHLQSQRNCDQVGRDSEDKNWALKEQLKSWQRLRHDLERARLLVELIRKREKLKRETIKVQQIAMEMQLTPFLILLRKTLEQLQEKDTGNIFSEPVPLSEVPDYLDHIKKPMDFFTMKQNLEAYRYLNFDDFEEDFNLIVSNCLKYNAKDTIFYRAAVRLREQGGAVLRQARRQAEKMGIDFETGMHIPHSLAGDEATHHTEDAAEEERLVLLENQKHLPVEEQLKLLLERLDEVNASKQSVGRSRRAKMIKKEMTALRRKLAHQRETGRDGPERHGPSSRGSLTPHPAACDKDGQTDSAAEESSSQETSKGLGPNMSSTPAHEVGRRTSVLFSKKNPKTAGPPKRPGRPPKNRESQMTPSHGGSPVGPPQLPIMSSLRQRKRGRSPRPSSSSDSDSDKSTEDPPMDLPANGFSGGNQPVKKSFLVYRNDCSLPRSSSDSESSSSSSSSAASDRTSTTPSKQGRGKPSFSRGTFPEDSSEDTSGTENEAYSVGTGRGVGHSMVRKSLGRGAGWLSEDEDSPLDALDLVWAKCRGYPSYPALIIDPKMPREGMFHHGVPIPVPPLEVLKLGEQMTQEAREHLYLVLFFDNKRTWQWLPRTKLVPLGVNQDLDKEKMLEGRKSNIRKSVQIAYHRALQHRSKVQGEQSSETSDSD

[1] = target: Fibroblast growth factor receptor 3 (Homo sapiens) (UniProt P22607); conditions: Compound concentration 20.0 uM, Protein concentration 2.0 uM, Result type QC Liability
Sequence of Fibroblast growth factor receptor 3 (Homo sapiens) (P22607 23-806 limits assumed): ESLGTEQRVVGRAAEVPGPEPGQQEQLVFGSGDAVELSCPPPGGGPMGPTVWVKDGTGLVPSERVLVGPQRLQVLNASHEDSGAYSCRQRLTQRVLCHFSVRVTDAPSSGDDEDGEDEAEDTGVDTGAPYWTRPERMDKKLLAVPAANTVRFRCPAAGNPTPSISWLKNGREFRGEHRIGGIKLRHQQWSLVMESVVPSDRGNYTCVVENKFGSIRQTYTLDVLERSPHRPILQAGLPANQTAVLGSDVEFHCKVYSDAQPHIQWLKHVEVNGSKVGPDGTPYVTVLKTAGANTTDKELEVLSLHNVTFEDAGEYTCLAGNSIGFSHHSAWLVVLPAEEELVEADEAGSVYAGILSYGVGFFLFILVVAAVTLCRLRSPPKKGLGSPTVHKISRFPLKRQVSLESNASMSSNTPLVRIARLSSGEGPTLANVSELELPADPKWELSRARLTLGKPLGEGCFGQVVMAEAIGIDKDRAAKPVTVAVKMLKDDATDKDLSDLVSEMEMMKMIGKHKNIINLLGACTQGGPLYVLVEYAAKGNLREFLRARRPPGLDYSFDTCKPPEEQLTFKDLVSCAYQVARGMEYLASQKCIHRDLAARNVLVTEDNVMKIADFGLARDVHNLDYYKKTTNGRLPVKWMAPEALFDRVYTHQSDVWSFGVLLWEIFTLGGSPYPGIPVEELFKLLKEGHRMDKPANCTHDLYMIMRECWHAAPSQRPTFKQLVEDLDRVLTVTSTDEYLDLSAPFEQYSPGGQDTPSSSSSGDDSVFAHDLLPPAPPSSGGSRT
Description: Thermal Shift Assay. Domain: start/stop: P449-E759

| SMILES | ΔTm (Peregrin (Homo sapiens)) | ΔTm [1] |
| --- | --- | --- |
| CN(C)[C@H]1CCN(c2cc(C(F)(F)F)c(C#N)c(Nc3cccc(CCC(=O)O)c3)n2)C1 | -2.19 °C | 1 °C |
| N#CC[C@H](C1CCCC1)n1cc(-c2ncnc3[nH]ccc23)cn1 | 0.48 °C | 3.43 °C |
| OCC1OC(n2cnc3cc(Cl)c(Cl)cc32)C(O)C1O (stereo unspecified) | -1.16 °C | 0.39 °C |
| C[C@H](CCOc1cccc(CC(=O)O)c1)N(Cc1cccc(C(F)(F)F)c1Cl)CC(c1ccccc1)c1ccccc1 | -4.82 °C | 2.11 °C |
| O=C(Nc1ccc(-n2nc(-c3cccnc3)cc2C(F)(F)F)cn1)c1ccc(-c2ccccc2)c(F)c1 | -2.22 °C | 0.42 °C |
| O=C(Nc1ccc(Cl)c(-c2ccccn2)c1)c1cccc(COc2ccc(Br)cc2CNCCO)c1 | -0.98 °C | 0.69 °C |
| CCO[C@@H](Cc1ccc(OCCc2ccc(OS(C)(=O)=O)cc2)cc1)C(=O)O | -1.83 °C | 0.52 °C |
| CNc1nc(-c2ccc3c(N)n[nH]c3c2)cc(N2C[C@@H](C(=O)NC3CCCCC3)CC[C@H]2C)n1 | -2.05 °C | 2.13 °C |
| COc1cc2ncnc(N[C@H](C)c3ccccc3)c2cc1OC1CCN(S(C)(=O)=O)CC1 | -0.11 °C | 0.38 °C |
| CS(C)(=O)=Nc1ccc(-c2ccc(-c3nc4[nH]c(O[C@@H]5CO[C@H]6[C@@H]5OC[C@H]6O)nc4cc3Cl)cc2)cc1 | -3.2 °C | 0.49 °C |
| Cc1cc(CN)cc(C)c1-c1ncn(C)c1-c1cncn1C | -1.81 °C | 0.44 °C |
| CN1C(=O)Cc2ccc(-c3ccc(C[C@@H](C#N)NC(=O)[C@@H]4N[C@H]5CC[C@@H]4C5)c(F)c3)cc21 | 1.91 °C | 0.66 °C |
| CCCCNc1ncc2c(-c3ccc(CN4CCN(C)CC4)cc3)cn([C@H]3CC[C@H](O)CC3)c2n1 | -3.2 °C | 7.9 °C |
| Cc1ncsc1-c1ccc(CNC(=O)[C@@H]2C[C@@H](O)CN2C(=O)[C@@H](NC(=O)CCCCNC(=O)c2ccc(-c3ccc(N4CCN(C)CC4)c(NC(=O)c4c[nH]c(=O)cc4C(F)(F)F)c3)cc2)C(C)(C)C)cc1 | 1.18 °C | -2.23 °C |
| Cc1ccc(NC(=O)c2ccc3c(c2)OCCO3)cc1NC(=O)c1ccc2nc(OCCN3CCCC3)ccc2c1 | -1.27 °C | 0.47 °C |
| CNC(=O)COc1cc2cc(Nc3nc(N4C[C@H](C)C[C@H](C)C4)ncc3Cl)ccc2n(C)c1=O | -2.08 °C | 0.62 °C |
| CCn1c(-c2nonc2N)nc2cncc(C(=O)N3CC[C@H](N)C3)c21 | -1.78 °C | 0.35 °C |
| O[C@]1(C(F)(F)F)CCCC[C@H]1Nc1ccc(F)cc1 | 0.24 °C | 0.58 °C |
| Cn1c(Nc2c(Cl)cccc2Cl)nc2ccc3nc[nH]c(=O)c3c21 | -0.59 °C | 1.31 °C |
| Cc1cc(OC2CCS(=O)(=O)CC2)cc(C)c1-c1cccc(COc2ccc(CCC(=O)O)c(F)c2)c1 | -4.37 °C | 0.31 °C |
| O=C(O)c1cccc(C2=C(c3cc(Cl)ccc3OCc3ccc(F)cc3F)CCC2)n1 | -5.87 °C | -0.33 °C |
| Cc1c(CCC(=O)O)cccc1NC(=O)[C@@H](c1ccc(-c2cncc(Cl)c2)c(F)c1)C1CCCC1 | -4.03 °C | 0.03 °C |
| CN[C@@H](C)C(=O)N[C@H](C(=O)N1CCC[C@H]1C(=O)Nc1sc(-c2ncco2)nc1-c1ccccc1)C1CCCCC1 | -1.67 °C | 0.43 °C |
| CC(C)(C[C@H]1CN(S(=O)(=O)c2cccc(C(F)(F)F)c2)c2cc(-c3cc(F)cc(OC(F)F)c3)ccc2O1)C(=O)O | -3.42 °C | -0.98 °C |
| Fc1ccc(-c2nc(-c3c(F)cccc3F)[nH]c2-c2ccncc2)cc1 | 0.63 °C | 2.21 °C |
| CCc1ccc(-c2ncn(CC3(F)CCN(C)CC3)c2-c2ccnc3[nH]ccc23)nc1 | -1.47 °C | 0.58 °C |
| C[C@H](CCC(=O)O)[C@H]1CC[C@H]2[C@@H]3[C@H](O)C[C@@H]4C[C@H](O)CC[C@]4(C)[C@H]3C[C@H](O)[C@]12C | -2.19 °C | 0.75 °C |

| SMILES | ΔTm (Peregrin (Homo sapiens)) | ΔTm [1] |
| --- | --- | --- |
| Cc1c(N2CCNCC2)nc2ccc(Br)cc2c1C(=O)NC[C@H](CCC(=O)O)c1ccccc1Cl | -2.38 °C | 0.57 °C |
| CO[C@@H](C)CN1CC[C@]2(C)c3cc(O)ccc3C[C@H]1C2(C)C | -3.01 °C | 1.13 °C |
| Cn1cc(-c2cnc3ccc4ccc(CS(=O)(=O)NCc5ccccn5)cc4c(=O)c3c2)cn1 | -1.66 °C | 3.77 °C |
| COc1cc(C(N)=O)ccc1Nc1ncc2c(n1)N(CCC(C)C)[C@H](C)C(=O)N2C | 1.82 °C | 1.76 °C |
| CC1(C)Cc2nc(C3CCCC3)c([C@@H](F)c3ccc(C(F)(F)F)cc3)c(C3CCCCC3)c2[C@@H](O)C1 | -1.29 °C | 1.5 °C |
| CC1CCN(c2ccnc(NCc3cn(C)cn3)n2)CC1 | -2.32 °C | 0.69 °C |
| CN1CC(=O)N(C)c2cnc(Nc3ccc(NC(=O)Nc4cccc(C(=O)O)c4)cc3)nc21 | -0.81 °C | 1.19 °C |
| C[C@@H]1Cc2c([nH]c3ccccc23)[C@@H](c2c(F)cc(/C=C/C(=O)O)cc2F)N1CC(C)(C)F | -4.53 °C | 0.58 °C |
| COc1ccccc1-c1cc(Nc2cccc(CS(N)(=O)=O)c2)ncn1 | -0.77 °C | 0.74 °C |
| CNc1oc(-c2cccc3ccccc23)nc1C#N | -2.17 °C | 0.61 °C |
| O=C(O)c1cc(-c2ccccc2)ccc1O | -0.36 °C | 0.62 °C |
| CC(C)c1nc2c(c3c1[C@H](c1ccc(C(F)(F)F)cc1)OC31CCOCC1)[C@H](O)CC(C)(C)C2 | -3.09 °C | 0.52 °C |
| CS(=O)(=O)NCC[C@H](NC(=O)c1cncc2c1cnn2-c1ccc(F)cc1)c1ccnc(S(C)(=O)=O)c1 | -1.91 °C | 0.62 °C |
| N#Cc1ccc(COc2ccc(Br)cc2CNCCO)cn1 | 0.18 °C | 0.63 °C |
| CC[C@@H](CO)Nc1nc(Nc2cccc(NC(=O)C(C)(C)C)c2)ncc1F | -1.26 °C | 2.58 °C |
| CNCc1ccc(-c2cc(-c3nc(-c4ccc(S(=O)(=O)C(C)C)cc4)cnc3N)on2)cc1 | -0.8 °C | -1.35 °C |
| CCN(C)C(=O)c1ccc2c(c1)NC(=O)/C2=C(\NC1CCN(C)CC1)c1ccccc1 | -1.76 °C | 0.47 °C |
| Cc1nnc2n1-c1sc3c(c1C(c1ccccc1Cl)=NC2)C[C@@H](C(=O)N1CCOCC1)C3 | -1.96 °C | 0.58 °C |
| O=C(Nc1ccc(OC(F)(F)Cl)cc1)c1cnc(N2CC[C@@H](O)C2)c(-c2cc[nH]n2)c1 | -3.77 °C | 0.66 °C |
| COC[C@@H](C)N[C@H]1CC[C@H](Nc2cc(-c3cccc(NCC4(C#N)CCOCC4)n3)c(Cl)cn2)CC1 | -1.02 °C | 0.39 °C |
| CO[C@H](C)CN1CC[C@@]2(C)c3ccc(O)cc3C[C@@H]1C2(C)C | -2.03 °C | 0.41 °C |
| Cn1cc(-c2ccc(-c3cncc(Cl)c3N3CCC4(CCNC4=O)CC3)cc2)cn1 | -1.65 °C | 0.5 °C |
| O=C(CNCc1cc2ccccc2[nH]1)N[C@H]1CC[C@@H](c2nc3ccccc3[nH]2)CC1 | 0.07 °C | 0.46 °C |
| CC(=O)N1CCC(c2ccc(C(=O)NC(=N)N)cc2C(F)(F)F)CC1 | -2.69 °C | 1.29 °C |
| CC(C)(C)OC(=O)CN(Cc1ccc(Cl)cc1)Cc1ccc([N+](=O)[O-])s1 | -0.13 °C | 0.88 °C |
| O=C1Nc2nc(-c3c(O)cccc3OCC3CC3)cc([C@@H]3CCCNC3)c2CO1 | -2.51 °C | 1.04 °C |
